From patent EP0598515A1, “Method for herbicidal activity-enhancing, activity-enhanced herbicidal composition and activity-enhancing composition” (ISHIHARA SANGYO KAISHA LTD., priority 1992, dated 1994)
“And” between values parts separate entries of the source, which are not always exact repeats. Equal entries are not always repeated.

System: Crabgrass (Digitaria sanginalis L.)
Test: Test Example 5: pot test with kinds of vegetable oil
Format: in vivo
Conditions: Example 7 water dispersible granules, 0.2% by volume Frigate + 0.4% by volume vegetable oil (90 parts oil, 10 parts Geronol VO/278), 23 days after treatment, duplicate
Description: Crabgrass (Digitaria sanginalis L.) seeds were sown in 1/1,000,000-hectare pots filled with upland soil and arranged in a duplicate system. When the crabgrass plants grew to a 3.5- to 4.0-leaf stage, water dispersible granules obtained in Example 7 described hereinbefore was diluted with 200 liters/hectare of water containing 0.2% by volume of Frigate and 0.4% by volume of a vegetable oil which was previously prepared by mixing with a predetermined amount of Geronol VO/278 (trade name) and was applied foliarly to the plants with a small spray gun.
Twenty three days after treatment, the growth inhibition of the plants was evaluated with visual observation in the same manner as in Test Example 1 and are shown in Table 5.
In the test, a vegetable oil, a fatty acid originated therefrom and an alkylester of the fatty acid were used as the vegetable oil and which are each of mixture of 10 parts by weight of Geronol VO/278 and 90 parts by weight of the following vegetable oil, fatty acids originated from vegetable oils and alkylesters of fatty acids. • (a) corn oil • (b) fatty acid originated from corn oil (prepared by hydrolysis of corn oil) • (c) methylester of (b) • (d) methylester of fatty acid originated from cottonseed oil • (e) methylester of fatty acid originated from rapeseed oil • (f) methyl oleate (trade name: ADJ-100) • (g) butyl oleate (trial product No. 93091; produced by Takemoto Oils and Fats) TABLE 5

Compound | Growth Inhibition (%) of Crabgrass (Compound A 2.5 g/ha) [%] | Growth Inhibition (%) of Crabgrass (Compound A 5 g/ha)
CCCCCCCC/C=C\CCCCCCCC(=O)OCCCC [g, butyl oleate] | 70 | 95% and 80%
CCCCCCCC/C=C\CCCCCCCC(=O)OC [f, methyl oleate] | 60 | 90%
